For 3 molecules, IC50 results are on record in ChEMBL document CHEMBL1125682, “Novel synthesis and biochemical properties of an [125I]-labeled photoaffinity probe for thromboxane A2/prostaglandin H2 receptors” (J Med Chem, 1991).

Experiment [1] deals with T1, Thromboxane A2 receptor (Homo sapiens, UniProt P21731).
T1 sequence (P21731 whole entry): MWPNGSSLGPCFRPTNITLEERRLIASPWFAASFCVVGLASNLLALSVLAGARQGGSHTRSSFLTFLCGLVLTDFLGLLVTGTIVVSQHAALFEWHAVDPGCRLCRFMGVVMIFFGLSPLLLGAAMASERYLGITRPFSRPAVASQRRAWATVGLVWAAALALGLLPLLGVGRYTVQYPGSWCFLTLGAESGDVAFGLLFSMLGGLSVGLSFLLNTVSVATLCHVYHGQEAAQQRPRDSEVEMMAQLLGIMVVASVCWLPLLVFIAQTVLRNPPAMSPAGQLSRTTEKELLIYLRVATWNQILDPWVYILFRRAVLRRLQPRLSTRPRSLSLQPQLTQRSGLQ
As to the kind of experiment: Binding affinity towards Thromboxane A2 receptor/Prostaglandin receptor in human platelet membranes using [125I]- as the radioligand. In kind it is cell membranes.

Experiment [2] has as its target T1, Thromboxane A2 receptor. As to the kind of experiment: Binding affinity towards Thromboxane A2/ Prostaglandin H2 receptor in human platelet membranes using [125I]- as the radioligand. In kind it is cell membranes.

By IC50 is commonly meant the concentration that gives 50% inhibition. For the molecule `O=C(O)CCC/C=C\C[C@@H]1[C@@H](/C=C/[C@@H](O)COc2ccc(I)cc2)[C@H]2CC[C@@H]1O2`, the IC50 in experiment [1] came to 50 nM.
In the case of `O=C(O)C[C@@H]1CCCc2c1n(Cc1ccc(Cl)cc1)c1ccc(F)cc21` (stereo in doubt; L-657925), the IC50 in experiment [2] amounted to 11.2 nM. This counts as double-digit nanomolar.
`O=C(O)C[C@@H]1CCCc2c1n(Cc1ccc(Cl)cc1)c1ccc(F)cc21` (stereo in doubt; L-657926) showed an IC50 in experiment [2] of 1500 nM.
